In PMC10221029, “Photoprotection and Antiaging Activity of Extracts from Honeybush (Cyclopia sp.)—In Vitro Wound Healing and Inhibition of the Skin Extracellular Matrix Enzymes: Tyrosinase, Collagenase, Elastase and Hyaluronidase” (Pharmaceutics, 2023):

Molecular target: T1, Collagenase from Clostridium histolyticum
T1 construct: gene colG; ColG / ColH not distinguished
Assay: spectrophotometric FALGPA hydrolysis, […] nm
Format: biochemical
Conditions: substrate FALGPA 0.8 mM; 50 mM tricine pH 7.5, 400 mM NaCl, 10 mM CaCl2; 15 min pre-incubation, room temperature

Structure (SMILES): CC1(C)CC[C@]2(C(=O)O)CC[C@]3(C)C(=CC[C@@H]4[C@@]5(C)CC[C@H](O)C(C)(C)[C@@H]5CC[C@]43C)[C@@H]2C1 [oleanolic acid]
- Standard Oleanolic Acid *: 25.66 ± 0.39 µg/mL
